Reference: patent US20110086891A1, “Solid Forms of 2-(2,4-Difluorophenyl)-6-(1-(2,6-Difluorophenyl)Ureido)Nicotinamide)” (Vertex Pharmaceuticals Incorporated, priority 2009, published 2011)
Converted amounts (≈) assume the structure as drawn. “Also recorded” adds a separate entry of the source. One block for each compound: values may come before it.

What was measured:
Type in all cases: physicochemical
[1] = Apparent solubilities of Form A at room temperature and at 60° C.; settings: thermodynamic from solid
[2] = Stability studies at 40° C./75% RH (physical and chemical stability, XRPD)
Text: In some embodiments, less than 25% of the solid form of Compound I decomposes, in some embodiments, less than about 20%, less than about 15%, less than about 10%, less than about 5%, less than about 3%, less than about 1%, less than about 0.5% of the form of Compound I decomposes under the conditions specified. In some embodiments, no detectable amount of the solid form of Compound I decomposes. […] In some embodiments, less than 25% of the solid form of Compound I changes into one or more different physical forms when subjected to specified conditions. In some embodiments, less than about 20%, less than about 15%, less than about 10%, less than about 5%, less than about 3%, less than about 1%, less than about 0.5% of the solid form of Compound I changes into one or more different physical forms of Compound I when subjected to specified conditions. In some embodiments, no detectable amount of the solid form of Compound I changes into one or more physically different solid forms of Compound I.

[3] = Solid form conversion on heating, cooling, storage, slurrying or addition of water (XRPD, VT-XRD); settings: for form conversion upon slurrying in a non-solvate forming solvent: slurry, MeOH and water (MeOH:H2O 1:1)
Method: Another form, Form P, was detected during the MeOH re-crystallization step used to prepare Form C from Form A. Form P is characterized below. When variable-temperature X-Ray diffraction (VT-XRD) of Form P was carried out in 5° C. increments from 25 to 50° C. and the resulting solid was cooled back to ambient conditions, it was observed that Form P transitions to Form A at approximately 40° C. and returns to Form P upon cooling back to room temperature. […] Both Form A and Form P are MeOH solvates.
1. Bruker D8 Discover with HighStar array detector with an accelerator voltage of 40 kV and current of 35 mA over a 120 second acquisition time. Each sample was prepared in a nickel sample holder and the subsequent pattern collected over two frames with a 2θ range of 4-41°. Variable temperature X-Ray diffraction (VT-XRD) was accomplished with a DHS900 Anton Paar heating stage with a TCU150 controller with a heating rate between steps of 10° C./min and an equilibration time of 5 minutes at temperature. 2. Siemens D5000 diffractometer using CuKα radiation (40 kV, 40 mA), θ-θ goniometer, automatic divergence and receiving slits, a graphite secondary monochromator and a scintillation counter. The data were collected over an angular 2 theta range of 2° to 42° in continuous scan mode using a step size of 0.02° and a step time of 1 second. Samples were run under ambient conditions and prepared as flat plate specimens using powder as received without grinding. Approximately 1-2 mg of the sample was slightly pressed on a glass slide to obtain a flat surface. Samples run under non-ambient conditions were mounted on a silicon wafer with heat conducting compounds. The sample was then heated to the appropriate temperature at ca. 20° C./min and subsequently held isothermally for ca 1 minute before data collection was initiated. 3. Bruker AXS C2 GADDS Diffractometer using CuKα radiation (40 kV, 40 mA), automated XYZ stage, laser video microscope for auto-sample positioning and a HiStar 2-dimensional area detector. X-Ray optics consists of a single Gobel multilayer mirror coupled with a pinhole collimator of 0.3 mm. Beam divergence, was approximately 4 mm. A θ-θ continuos scan mode was employed with a sample to detector distance of 20 cm which gives an effective 2θ range of 3.2-29.8°. A typical exposure time of a sample in this system would be 120 s. Samples were run under ambient conditions and prepared as flat plate specimens using powder as received without grinding. Approximately 25-50 mg of the sample was gently packed into 12 mm diameter, 0.5 mm deep cavities cut into polished, zero-background (510) silicon wafers (from The Gem Dugout). All specimens were run both stationary and rotated on their own plate during analysis. A further specimen was run using silicon powder as internal standard to correct for any peak displacement. Diffraction data were reported using Cu Kαl (l=1.5406 Å), after the Kαl component had been stripped using EVA, the powder patterns were indexed by the ITO method using WIN-INDEX and the raw lattice constants refined using WIN-METRIC. 4. Shimadzu XRD-6000 X-Ray powder diffractometer using CuKα radiation (40 kV, 40 mA) equipped with a fine-focus X-Ray tube. Divergence and Scattering slids were set at 1° and the receiving slit was set at 0.15 mm. A NaI scintillation detector detected diffracted irradiation. A θ-2θ continuous scan at 3°/min (0.4 sec/0.02° step) from 2.5° to 40° was used. A silicon standard was analyzed each day to check the instrument alignment. Each sample was prepared for analysis by pressing it onto the sample holder. 5. Inel XRG-3000 X-Ray powder diffractometer using CuKα radiation (40 kV, 30 mA). This was equipped with a curved position-sensitive detector. Data was collected in real time over a 2 θ range of 120° at a resolution of 0.03°. Samples were packed in an aluminum holder with a silicon insert and analyzed. A silicon standard was analyzed each day to check for instrument alignment. […]

[4] = Solubility analysis (in water); settings: 25° C.
Method: This was measured by suspending enough Compound I in 0.25 mL of solvent (water) to give a maximum final concentration of ≧10 mg/ml of the parent free form of the compound. The suspension was equilibrated at 25° C. for 24 hrs followed by a pH check and filtration through a glass fibre C96 well plate. The filtrate was then diluted down by a factor of 101. Quantitation was by HPLC (Table XI) with reference to a standard, diluted and undiluted tests were injected. The solubility was calculated by integration of the peak area found at the same retention time as the peak maximum in the standard injection. If there is sufficient solid in the filter plate the XRPD is normally checked for phase changes, hydrate formation, amorphization, crystallization, etc.

[5] = Gravimetric vapour sorption (GVS) studies
Method: All samples were run on a Hiden IGASorp moisture sorption analyzer running CFRSorp software. Sample sizes were typically 10 mg. A moisture absorption-desorption isotherm was performed as outlined below in Table X (2 scans giving 1 complete cycle). All samples were loaded/unloaded at typical room humidity and temperature (40% RH, 25° C.). All samples were analysed by XRPD post GVS analysis. The standard isotherm was performed at 25° C. at 10% RH intervals over a 0-90% RH range.

[6] = Relative stability studies: slurrying 1:1 mixtures of forms in 3:1 water:ethanol at various temperatures; settings: slurry in 3:1 water:ethanol
Method: 1:1 mixtures of Form C and form G of Compound I were slurried in 3:1 water:ethanol at a range of temperatures to determine the relative stability at different temperatures. 5 mg of Form C was mixed with 5 mg of Form G in a glass vial. 1.0 ml of 3:1 water:ethanol was added and the resulting slurry was stirred at 5° C. for 10 days. The resulting solid was isolated by filtration and analysed by XRPD (see FIG. 17).
(§1) The above procedure was repeated at 25, 50 and 80° C.
1:1 mixtures of Form C and Form F were slurried in 3:1 water:ethanol at a range of temperatures to determine the relative stability at different temperatures. […] Ethanol was used in addition to water in order to increase the amount of Compound I in solution and so increase the rate of conversion between forms. Ethanol was chosen as no ethanol solvate of Compound I was known. 10 mg of Form C was mixed with 10 mg of Form F in a glass vial. 2.0 ml of 3:1 water:ethanol was added and the resulting slurry was stirred at 5° C. for 24 hours. Solid was isolated by filtration and analysed by XRPD.
as §1
1:1 mixtures of Form F and Form G were slurried in 3:1 water:ethanol at a range of temperatures to determine the relative stability at different temperatures. 10 mg of Form F was mixed with 10 mg of Form G in a glass vial. 2.0 ml of 3:1 water:ethanol was added and the resulting slurry was stirred at 5° C. for 24 hours. The resulting solid was isolated by filtration and analysed by XRPD. The above procedure was repeated at 25, 50 and 70° C. 70° C. was used instead of 80° C. in an attempt to reduce degradation.

solubility ([1]; organic solvent or mixture, 60° C., 1-Butanol): 2900 µg/mL (≈ 7.17 mM) | solubility ([1]; organic solvent or mixture, 60° C., Butyl Acetate): 1900 µg/mL (≈ 4.7 mM) | solubility ([1]; organic solvent or mixture, room temperature, 1-Butanol): 2000 µg/mL (≈ 4.95 mM) | solubility ([1]; organic solvent or mixture, room temperature, 2-Butanone): 3400 µg/mL (≈ 8.41 mM) | solubility ([1]; organic solvent or mixture, room temperature, 2-Propanol): < 800 µg/mL | solubility ([1]; organic solvent or mixture, room temperature, 2-Propyl Acetate): 2900 µg/mL (≈ 7.17 mM) | solubility ([1]; organic solvent or mixture, room temperature, Acetone): 6400 µg/mL (≈ 15.8 mM) | solubility ([1]; organic solvent or mixture, room temperature, Acetonitrile): 3800 µg/mL (≈ 9.4 mM) | solubility ([1]; organic solvent or mixture, room temperature, Dimethylformamide): > 100000 µg/mL | solubility ([1]; organic solvent or mixture, room temperature, Ethanol): 5700 µg/mL (≈ 14.1 mM) | solubility ([1]; organic solvent or mixture, room temperature, Ethyl Acetate): 7200 µg/mL (≈ 17.8 mM) | solubility ([1]; organic solvent or mixture, room temperature, Heptane): < 900 µg/mL | solubility ([1]; organic solvent or mixture, room temperature, Methanol): 5700 µg/mL (≈ 14.1 mM) | solubility ([1]; organic solvent or mixture, room temperature, Methylene Chloride): < 800 µg/mL | solubility ([1]; organic solvent or mixture, room temperature, Tetrahydrofuran): 1500 µg/mL (≈ 3.71 mM) | solubility ([1]; room temperature, Water): < 900 µg/mL | form conversion upon slurrying in a non-solvate forming solvent [3]: become crystalline Form C
Structure (SMILES): NC(=O)c1ccc(N(C(N)=O)c2c(F)cccc2F)nc1-c1ccc(F)cc1F [Form A, 2-(2,4-difluorophenyl)-6-(1-(2,6-difluorophenyl)ureido)nicotinamide•MeOH]
results of stability studies as seen by XRPD (before and after spectra) [2]: before and after spectra illustrate formation of Form C | form conversion upon storage ([2]; 40° C./75% RH): become Form C described herein after one to four weeks; also recorded: convert to Form C upon storage at 40° C./75% RH for one week or longer | form conversion on cooling ([3]; cooling): convert to Form P upon cooling below about 50 °C | form conversion on heating [3]: become crystalline Form C upon heating to 100 °C

solubility in water [4]: at least 0.021 mg/mL | time remaining chemically stable ([2]; 40° C./75% RH): at least 2 weeks | time remaining in substantially the same physical form ([2]; 40° C./75% RH): at least 2 weeks | total weight gain in water at 40% RH ([5]; 40% RH): 1% | weight gain in water at 90% RH [5]: 1.1%
Structure (SMILES): NC(=O)c1ccc(N(C(N)=O)c2c(F)cccc2F)nc1-c1ccc(F)cc1F [Form F, 2-(2,4-difluorophenyl)-6-(1-(2,6-difluorophenyl)ureido)nicotinamide]
fate of the form on slurrying [6]: At 5 and 25° C., Form F was observed to convert to Form G; also recorded: not recovered after slurrying at any of the four temperatures

solubility in water [4]: at least 0.020 mg/mL | results of stability studies as seen by XRPD (before and after spectra) [2]: before and after spectra are similar | time remaining chemically stable ([2]; 40° C./75% RH): at least two | time remaining in substantially the same physical form ([2]; 40° C./75% RH): at least two | hygroscopicity [5]: highly hygroscopic | total water gain (in weight) at 10% RH ([5]; 10% RH): 1% | weight gain in water at 90% RH [5]: more than 8% | form conversion after the addition of water ([3]; 20° C. to 50° C., 2, 5 and 24 hours after addition of water): convert into Form Q | relative stability between forms [6]: more stable than Form F at 5 °C
Structure (SMILES): NC(=O)c1ccc(N(C(N)=O)c2c(F)cccc2F)nc1-c1ccc(F)cc1F [Form G, 2-(2,4-difluorophenyl)-6-(1-(2,6-difluorophenyl)ureido)nicotinamide]
form conversion on heating [3]: converted into Form F on heating above about 130 °C

temperature of transition of Form P to Form A ([3]; VT-XRD, 5° C. increments from 25 to 50° C.): approximately 40 °C | form conversion upon slurrying in a non-solvate forming solvent [3]: convert to Form C
Structure (SMILES): NC(=O)c1ccc(N(C(N)=O)c2c(F)cccc2F)nc1-c1ccc(F)cc1F [Form P, 2-(2,4-difluorophenyl)-6-(1-(2,6-difluorophenyl)ureido)nicotinamide•MeOH]
results of stability studies as seen by XRPD (before and after spectra) [2]: before and after spectra illustrate formation of Form C | form conversion on heating [3]: convert to Form A upon heating to 50 °C and then to Form C upon heating to 100 °C | relative stability of Form A and Form P ([3]; room temperature, VT-XRD): the more stable of the two at room temperature
